Data reported in patent publication US7402314B2, “In vivo activation of tumor-specific cytotoxic T cells” (The Scripps Research Institute, priority 1995, dated 2008).

Molecular target: A2.1/K^b (UniProt P01901+P04439, D140Y/D185E/D98H/E176V/G131W/I119V/I121R/I166T/N151K/N90K/Q86G/Q94H/R138H/R169H)
Type: binding, human-mouse chimeric

Sequence	binding of test peptide to A2.1/K^b (percent specific lysis of EA2/K^b targets by influenza A-specific CTL)	inhibition of binding of the influenza A-derived peptide to A2.1/K^b by Her-2/Neu-derived peptides
ILKEPVHGV [HIV-1 RT 476-484, reference compound]	efficiently bound to A2.1/K^b	
ILLVVVLGV [Peptide H9]		binding at the highest efficiency
